Source: patent US20240203290A1, “VITRO MODEL DEVICE FOR CORNEA BARRIER” (CFD Research Corporation, priority 2022, published 2024)

Legend:
Type in all cases: cell-based
[1] = system: corneal barrier of the microfluidic in vitro cornea device; experiment: Morphological observation of the chambers after trypan blue exposure; conditions: trypan blue injected into TFEp channel at 3 μL/min for 4 min, incubated at 37° C. for 15 min; observed at any chamber
[2] = system: corneal barrier of the microfluidic in vitro cornea device (epithelial, fibroblast, endothelial triculture); experiment: FSS permeability of the in vitro cornea device after trypan blue exposure; conditions: trypan blue injected into TFEp channel at 3 μL/min for 4 min, incubated at 37° C. for 15 min; then FSS injected into TFEp channel
Experimental: (§1) In some embodiments, all channels of the device can be coated with human fibronectin to facilitate cellular attachment. For example, primary human corneal fibroblasts can be seeded on Day 0. Fibroblasts can be harvested, concentrated to 1×10^7 cells/mL and injected into the stromal chamber via a remote head syringe pump at 5 μL/min until cells are homogenously distributed. Devices can then be incubated at 37° C., 5% CO2 for 4 hours to allow for attachment. Media can be subsequently refreshed every 24 hours. Primary human corneal epithelial cells can be seeded into the TFEp circulation channel on Day 3. […]
(§2) Viability can be assessed on-chip as an endpoint for epithelial, fibroblast, and endothelial cells. Devices are prepared for viability quantitation by incubation with calcein AM and ethidium homodimer in PBS. After rinsing the cells with PBS, fluorescent images are taken via microscope, and the data was analyzed to determine cornea triculture viability (sec, FIG. 5A). […]
Following exposure, FSS can be injected into the TFEp channel and permeability assayed. […] Samples can be taken from cell-laden channels (individually or combined) and placed in a low volume, white walled […] plate for luminescence analysis using a plate reader. […] The increase in AK release in arbitrary luminescence units compares the toxic exposure of trypan blue to positive and negative controls. […]

[3] = system: cells of the microfluidic in vitro cornea device; experiment: Cytotoxicity by adenylate kinase release (luminescence) from cell-laden channels; conditions: trypan blue exposure; compared with positive control (lysis buffer) and negative control (media only)
Experimental: as §1, §2
Following exposure, FSS can be injected into the TFEp channel and permeability assayed. […] Samples can be taken from cell-laden channels (individually or combined) and placed in a low volume, white walled […] plate for luminescence analysis using a plate reader. […] The increase in AK release in arbitrary luminescence units compares the toxic exposure of trypan blue to positive and negative controls.

## Cc1cc(-c2ccc(/N=N/c3c(S(=O)(=O)O)cc4cc(S(=O)(=O)O)cc(N)c4c3O)c(C)c2)ccc1/N=N/c1c(S(=O)(=O)O)cc2cc(S(=O)(=O)O)cc(N)c2c1O [trypan blue]
[1]
  Morphological effects of exposure: evidence of barrier degradation (e.g., cell death and detachment) and apoptosis
[2]
  Permeability in trypan blue treated devices compared to controls: 10 fold
[3]
  Increase in adenylate kinase release: 1.5 fold
